# Data: ChEMBL document CHEMBL5154798, “Structure-based discovery of receptor tyrosine kinase AXL degraders with excellent anti-tumor activity by selectively degrading AXL and inducing methuosis” (Eur J Med Chem, 2022)
# pIC50: −log10 of the molar value. Active and inactive are the calls of the source. The rule behind the calls is not given here.
# Assays:
# [1] = system: MDA-MB-231; assay: Antiproliferative activity against human MDA-MB-231 cells highly expressing AXL after 72 hrs by MTT assay; conditions: MDA-MB-231, 72 h
# [2] = system: 4T1; assay: Antiproliferative activity against mouse 4T1 cells highly expressing AXL after 72 hrs by MTT assay; conditions: 4T1, 72 h
# [3] = Cytotoxicity against human MCF-10A cells after 72 hrs by MTT assay; assay type: toxicity, cell-based
# [4] = Cytotoxicity against human GES1 cells after 72 hrs by MTT assay; assay type: toxicity, cell-based
# [5] = system: MDA-MB-231; assay: Antitumor activity against human MDA-MB-231 cells xenografted in female BALB/c nude mouse assessed as tumor growth inhibition at 25 mg/kg, ip; assay type: functional, organism-based
# [6] = Toxicity in female BALB/c nude mouse xenografted with human MDA-MB-231 cells assessed as change in body wieght at 25 mg/kg, ip; assay type: organism-based; conditions: in vivo
# [7] = Systemic toxicity in female BALB/c nude mouse xenografted with human MDA-MB-231 cells assessed as necrosis of heart tissue at 25 mg/kg, ip; assay type: organism-based; conditions: in vivo
# [8] = Systemic toxicity in female BALB/c nude mouse xenografted with human MDA-MB-231 cells assessed as necrosis of liver tissue at 25 mg/kg, ip; assay type: organism-based; conditions: in vivo
# [9] = Systemic toxicity in female BALB/c nude mouse xenografted with human MDA-MB-231 cells assessed as necrosis of spleen tissue at 25 mg/kg, ip; assay type: organism-based; conditions: in vivo
# [10] = Systemic toxicity in female BALB/c nude mouse xenografted with human MDA-MB-231 cells assessed as necrosis of lung tissue at 25 mg/kg, ip; assay type: organism-based; conditions: in vivo
# [11] = Systemic toxicity in female BALB/c nude mouse xenografted with human MDA-MB-231 cells assessed as necrosis of kidney tissue at 25 mg/kg, ip; assay type: organism-based; conditions: in vivo
# [12] = Systemic toxicity in female BALB/c nude mouse xenografted with human MDA-MB-231 cells assessed as inflammatory cell infiltration in heart at 25 mg/kg, ip; assay type: organism-based; conditions: in vivo
# [13] = Systemic toxicity in female BALB/c nude mouse xenografted with human MDA-MB-231 cells assessed as inflammatory cell infiltration in liver at 25 mg/kg, ip; assay type: organism-based; conditions: in vivo
# [14] = Systemic toxicity in female BALB/c nude mouse xenografted with human MDA-MB-231 cells assessed as inflammatory cell infiltration in spleen at 25 mg/kg, ip; assay type: organism-based; conditions: in vivo
# [15] = Systemic toxicity in female BALB/c nude mouse xenografted with human MDA-MB-231 cells assessed as inflammatory cell infiltration in lung at 25 mg/kg, ip; assay type: organism-based; conditions: in vivo
# [16] = Systemic toxicity in female BALB/c nude mouse xenografted with human MDA-MB-231 cells assessed as inflammatory cell infiltration in kidney at 25 mg/kg, ip; assay type: organism-based; conditions: in vivo
# [17] = biological target: T1, Tyrosine-protein kinase receptor UFO (Homo sapiens, UniProt P30530); assay: Inhibition of AXL (unknown origin) measured by FRET assay
# T1 sequence (P30530 whole entry): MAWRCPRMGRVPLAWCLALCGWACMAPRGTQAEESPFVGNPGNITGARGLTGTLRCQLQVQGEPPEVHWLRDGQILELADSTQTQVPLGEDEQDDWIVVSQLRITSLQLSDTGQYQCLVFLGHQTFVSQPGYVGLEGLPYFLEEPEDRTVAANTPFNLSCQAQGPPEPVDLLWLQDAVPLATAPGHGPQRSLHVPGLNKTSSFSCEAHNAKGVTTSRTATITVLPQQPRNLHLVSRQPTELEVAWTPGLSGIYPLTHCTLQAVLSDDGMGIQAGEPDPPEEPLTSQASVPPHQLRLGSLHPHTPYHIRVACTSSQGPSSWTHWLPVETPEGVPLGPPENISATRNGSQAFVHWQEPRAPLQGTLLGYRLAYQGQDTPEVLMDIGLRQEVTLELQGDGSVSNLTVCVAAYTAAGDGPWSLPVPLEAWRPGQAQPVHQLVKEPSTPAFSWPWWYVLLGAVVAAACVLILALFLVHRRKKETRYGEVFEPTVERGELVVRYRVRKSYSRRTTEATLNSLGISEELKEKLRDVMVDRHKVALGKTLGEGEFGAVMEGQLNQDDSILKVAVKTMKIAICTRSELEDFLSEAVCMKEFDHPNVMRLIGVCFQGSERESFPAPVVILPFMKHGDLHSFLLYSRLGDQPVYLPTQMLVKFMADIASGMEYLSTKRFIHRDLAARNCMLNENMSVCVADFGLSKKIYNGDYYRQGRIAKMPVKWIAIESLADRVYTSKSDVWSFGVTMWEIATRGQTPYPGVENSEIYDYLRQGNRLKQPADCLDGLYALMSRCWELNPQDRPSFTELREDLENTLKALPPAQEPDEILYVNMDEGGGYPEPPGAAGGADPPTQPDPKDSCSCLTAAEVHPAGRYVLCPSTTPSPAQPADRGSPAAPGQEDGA
# [18] = system: MDA-MB-231; assay: Induction of cytoplasmic vacuolation in human MDA-MB-231 cells at 0.5 uM; assay type: functional, cell-based
# [19] = system: 4T1; assay: Induction of cytoplasmic vacuolation in mouse 4T1 cells at 0.5 uM; assay type: functional, cell-based
# [20] = system: MDA-MB-231; assay: Induction of macropinocytosis in human MDA-MB-231 cells measured by LysoTracker staining based fluorescence microscopy; assay type: functional, cell-based
# [21] = system: MDA-MB-231; assay: Induction of macropinocytosis in human MDA-MB-231 cells measured by MitoTracker staining based fluorescence microscopy; assay type: functional, cell-based
# [22] = system: MDA-MB-231; assay: Induction of macropinocytosis in human MDA-MB-231 cells assessed as co-localization of Rab7 with lucifer yellow measured by immunofluorescence assay; assay type: functional, cell-based
# [23] = system: MDA-MB-231; assay: Induction of macropinocytosis in human MDA-MB-231 cells assessed as co-localization of LAMP-1 with lucifer yellow measured by immunofluorescence assay; assay type: functional, cell-based
# [24] = system: MDA-MB-231; assay: Induction of cytoplasmic vacuolation in human MDA-MB-231 cells at 1 uM in presence of 1 uM pan-caspase inhibitor Z-VAD-FMK; assay type: functional, cell-based
# [25] = AUC (0 to t) in male Sprague-Dawley rat at 2 mg/kg, iv administered as single dose measured by LC/MS/MS analysis; assay type: ADME, organism-based; parameters: dose 2 mg/kg, route iv; conditions: in vivo
# [26] = Cmax in male Sprague-Dawley rat at 2 mg/kg, iv administered as single dose measured by LC/MS/MS analysis; assay type: ADME, organism-based; parameters: dose 2 mg/kg, route iv; conditions: in vivo
# [27] = Tmax in male Sprague-Dawley rat at 2 mg/kg, iv administered as single dose measured by LC/MS/MS analysis; assay type: ADME, organism-based; conditions: in vivo
# [28] = Half-life in male Sprague-Dawley rat at 2 mg/kg, iv administered as single dose measured by LC/MS/MS analysis; assay type: ADME, organism-based; conditions: in vivo
# [29] = Clearance in male Sprague-Dawley rat at 2 mg/kg, iv administered as single dose measured by LC/MS/MS analysis; assay type: ADME, organism-based; conditions: male, Sprague-Dawley, in vivo
# [30] = AUC (0 to t) in male Sprague-Dawley rat at 20 mg/kg, po administered as single dose measured by LC/MS/MS analysis; assay type: ADME, organism-based; parameters: dose 20 mg/kg, route po; conditions: in vivo
# [31] = Cmax in male Sprague-Dawley rat at 20 mg/kg, po administered as single dose measured by LC/MS/MS analysis; assay type: ADME, organism-based; parameters: dose 20 mg/kg, route po; conditions: in vivo
# [32] = Tmax in male Sprague-Dawley rat at 20 mg/kg, po administered as single dose measured by LC/MS/MS analysis; assay type: ADME, organism-based; conditions: in vivo
# [33] = Half-life in male Sprague-Dawley rat at 20 mg/kg, po administered as single dose measured by LC/MS/MS analysis; assay type: ADME, organism-based; conditions: in vivo
# [34] = Oral bioavailability in male Sprague-Dawley rat at 20 mg/kg administered as single dose measured by LC/MS/MS analysis; assay type: ADME, organism-based; conditions: in vivo
# [35] = system: Mus musculus; assay: In vivo induction of CRBN-mediated AXL degradation in mouse measured after 6 hrs; assay type: functional, organism-based
compound,measurement,setting,value
Nc1nc(NCCNC(=O)CCCCCNc2cccc3c2CN(C2CCC(=O)NC2=O)C3=O)nn1-c1ccc(-c2ccccc2)nn1 (stereo not drawn),pIC50,[1],4.50
same,pIC50,[2],4.56
same,IC50 at 72 h,[3],> 60 µM
same,IC50 at 72 h,[4],> 60 µM
Nc1nc(Nc2ccc3c(c2)CC[C@@H](N2CCCC2)CC3)nn1-c1cc2c(nn1)-c1ccccc1CCC2 [BEMCENTINIB],pIC50,[1],5.55
same,pIC50,[2],6.03
same,IC50 at 72 h,[3],> 60 µM
same,IC50 at 72 h,[4],> 60 µM
same,TGI,[5],Active
same,Activity,[6],Non-Toxic
same,Activity,[7],Non-Toxic
same,Activity,[8],Non-Toxic
same,Activity,[9],Non-Toxic
same,Activity,[10],Non-Toxic
same,Activity,[11],Non-Toxic
same,Activity,[12],Non-Toxic
same,Activity,[13],Non-Toxic
same,Activity,[14],Non-Toxic
same,Activity,[15],Non-Toxic
same,Activity,[16],Non-Toxic
Nc1nc(NCCNC(=O)CCCNc2cccc3c2CN(C2CCC(=O)NC2=O)C3=O)nn1-c1ccc(-c2ccccc2)nn1 (stereo not drawn),pIC50,[17],< 4.22
same,pIC50,[1],< 4.22
same,pIC50,[2],< 4.22
same,IC50 at 72 h,[3],> 60 µM
same,IC50 at 72 h,[4],> 60 µM
Nc1nc(NCCNC(=O)CCCCNc2cccc3c2CN(C2CCC(=O)NC2=O)C3=O)nn1-c1ccc(-c2ccccc2)nn1 (stereo not drawn),pIC50,[1],4.28
same,pIC50,[2],< 4.22
same,IC50 at 72 h,[3],> 60 µM
same,IC50 at 72 h,[4],> 60 µM
Nc1nc(Nc2ccc(CNC(=O)CCCCCCCNc3cccc4c3CN(C3CCC(=O)NC3=O)C4=O)cc2)nn1-c1ccc(-c2ccccc2)nn1 (stereo not drawn),pIC50,[1],4.99
same,pIC50,[2],5.26
same,IC50 at 72 h,[3],> 60 µM
same,IC50 at 72 h,[4],> 60 µM
same,Activity,[18],Active
same,Activity,[19],Active
same,Activity,[20],Active
same,Activity,[21],Active
same,Activity,[22],Active
same,Activity,[23],Active
same,Activity,[24],Active
same,TGI,[5],Active
same,Activity,[6],Non-Toxic
same,Activity,[7],Non-Toxic
same,Activity,[8],Non-Toxic
same,Activity,[9],Non-Toxic
same,Activity,[10],Non-Toxic
same,Activity,[11],Non-Toxic
same,Activity,[12],Non-Toxic
same,Activity,[13],Non-Toxic
same,Activity,[14],Non-Toxic
same,Activity,[15],Non-Toxic
same,Activity,[16],Non-Toxic
same,AUCt,[25],2933.4 ng·h/mL
same,Cmax,[26],166 ng/mL
same,Tmax,[27],0.54 h
same,t1/2,[28],0.72 h
same,clearance,[29],11.3 mL/min/kg
same,AUC(0-t),[30],865 ng·h/mL
same,Cmax,[31],92 ng/mL
same,Tmax,[32],1.89 h
same,half-life,[33],2.37 h
same,bioavailability,[34],4.93%
same,Activity,[35],Active
Nc1nc(NCCNC(=O)CCCCNc2cccc3c2CN(C2CCC(=O)NC2=O)C3=O)nn1-c1cc2c(nn1)-c1ccccc1CCC2 (stereo not drawn),pIC50,[1],4.44
same,pIC50,[2],5.15
same,IC50 at 72 h,[3],> 60 µM
same,IC50 at 72 h,[4],> 60 µM
Nc1nc(Nc2ccc(CNC(=O)CCCCNc3cccc4c3CN(C3CCC(=O)NC3=O)C4=O)cc2)nn1-c1ccc(-c2ccccc2)nn1 (stereo not drawn),pIC50,[1],4.45
same,pIC50,[2],4.27
same,IC50 at 72 h,[3],> 60 µM
same,IC50 at 72 h,[4],> 60 µM
Nc1nc(NCCNC(=O)CCCNc2cccc3c2CN(C2CCC(=O)NC2=O)C3=O)nn1-c1cc2c(nn1)-c1ccccc1CCC2 (stereo not drawn),pIC50,[17],< 4.22
same,pIC50,[1],< 4.22
same,IC50 at 72 h,[3],> 60 µM
same,IC50 at 72 h,[4],> 60 µM
Nc1nc(Nc2ccc(CNC(=O)CCCNc3cccc4c3CN(C3CCC(=O)NC3=O)C4=O)cc2)nn1-c1ccc(-c2ccccc2)nn1 (stereo not drawn),pIC50,[1],4.32
same,pIC50,[2],< 4.22
same,IC50 at 72 h,[3],> 60 µM
same,IC50 at 72 h,[4],> 60 µM
Nc1nc(Nc2ccc(CNC(=O)CCCCCNc3cccc4c3CN(C3CCC(=O)NC3=O)C4=O)cc2)nn1-c1cc2c(nn1)-c1ccccc1CCC2 (stereo not drawn),pIC50,[1],4.48
same,pIC50,[2],4.53
same,IC50 at 72 h,[3],> 60 µM
same,IC50 at 72 h,[4],> 60 µM
